In patent US12351581B2, “Compounds for FGFR inhibition” (Cogent Biosciences, Inc., priority 2023, dated 2025) one finds IC50 data, which are given here for 13 compounds.

One experiment concerns the target T1, FGFR2 (Homo sapiens, UniProt P21802).
T1 construct: biochemical assays using purified intracellular domains of the respective isoforms; purchased Carna Bioscience 08-134
The experiment in a line: FGFR wild type enzyme assay (HTRF KinEASE-TK). It is filed as biochemical. To be noted: ATP 2 uM. How it is done:
(§1) Activity against FGFR wild type and mutant enzymes were determined in biochemical assays using purified intracellular domains of the respective isoforms using HTRF KinEASE-TK assay technology from CisBio, now PerkinElmer. (Catalogue number 62TK0PEC). Briefly test compounds were tested in 11 point 1:3 serial dilutions, typical final concentration range from 10,000 nM to 0.17 nM. Test compounds were dissolved in DMSO and added to assay plates using acoustic transfer. Enzyme was pre-incubated with test compound for 30 minutes and the assay was initiated by addition of ATP and TK-peptide substrate. After 60 minutes at room temperature the reaction was quenched with detection reagent and incubated for an additional 60 minutes at room temperature. The plates were read using a multimode reader and the emission ratio of 665 nm to 615 nm was determined. This ratio was converted to percent of control (POC). [1-(high control-sample signal)/(high control-low control)]*100. Wells without compound were used to determine high control values and wells without enzyme were used to determine low control values. The POC values were fit using a four-parameter logistic model and the value where the fit curve was equal to 50 POC was reported as the IC50 using the Signals Vitro Vivo software package (PerkinElmer). Final assay conditions were: 50 mM HEPES pH7.5, 10 mM MgCl2, 1 mM EDTA, 0.01% Brij-35, 2 mM MnCl2, 1 mM DTT, and 0.5 uM TK-peptide. The enzyme source, catalogue number, final enzyme concentration, and final ATP concentration can be found in the tables 1-2 below.

The next experiment deals with T2, FGFR2 V564I (Homo sapiens, UniProt P21802, V564I).
T2 construct: biochemical assays using purified intracellular domains of the respective isoforms; purchased Carna Bioscience 08-546
T2 sequence (P21802 399-821 V564I limits assumed): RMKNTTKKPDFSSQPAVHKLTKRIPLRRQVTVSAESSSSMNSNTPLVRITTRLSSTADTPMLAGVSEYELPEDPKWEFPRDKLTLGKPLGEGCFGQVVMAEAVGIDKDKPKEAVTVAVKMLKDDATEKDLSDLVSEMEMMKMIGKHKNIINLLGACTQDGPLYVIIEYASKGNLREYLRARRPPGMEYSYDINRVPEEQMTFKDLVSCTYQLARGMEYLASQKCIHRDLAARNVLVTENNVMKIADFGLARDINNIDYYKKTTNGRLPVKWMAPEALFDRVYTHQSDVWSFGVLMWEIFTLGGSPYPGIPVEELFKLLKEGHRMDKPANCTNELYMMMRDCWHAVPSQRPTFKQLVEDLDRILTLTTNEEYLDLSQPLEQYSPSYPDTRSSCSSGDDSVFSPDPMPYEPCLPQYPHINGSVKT
The experiment in a line: FGFR mutant enzyme assay (HTRF KinEASE-TK). The experiment is classed as biochemical. To be noted: ATP 0.4 uM. The method, then: as §1

The next experiment has as its target T3, FGFR2 N549H (Homo sapiens, UniProt P21802, N549H).
T3 construct: biochemical assays using purified intracellular domains of the respective isoforms; purchased Carna Bioscience 08-532
The experiment in a line: FGFR mutant enzyme assay (HTRF KinEASE-TK). It is filed as biochemical. To be noted: ATP 0.9 uM. How it is done: as §1

In the next experiment the target is T4, FGFR2 V564F (Homo sapiens, UniProt P21802, V564F).
T4 construct: biochemical assays using purified intracellular domains of the respective isoforms; purchased SignalChem Biotech F05-12FG
T4 sequence (P21802 399-821 V564F limits assumed): as the sequence (P21802 399-821 V564I limits assumed) above, with I166F counted along it
The experiment in a line: FGFR mutant enzyme assay (HTRF KinEASE-TK). The experiment is classed as biochemical. The conditions noted are these: ATP 1.5 uM. The method, then:
as §1
On the technique in general: Time-resolved FRET reads energy transfer from a long-lived donor to a nearby acceptor.

A further experiment deals with FGFR2-WT (Homo sapiens, UniProt P21802). The experiment in a line: Phosphorylated FGFR2-WT (pFGFR2-WT) cell assay, KATOIII cells. It is filed as cell-based. To be noted: 1 hour incubation, phospho FGFR2 HTRF. How it is done: KATOIII cells were grown in the appropriate growth medium, IMDM supplemented with 20% fetal bovine serum. Cells were seeded into a 384-well at 1×10^5 cells/25 μL/well. Cells were treated with compound using three-fold serial dilutions at final concentrations ranging from 10 μM to 0.5 nM. Compound was incubated on cells for 1 hour at 37° C., 5% CO2.
Sequence of FGFR2-WT (P21802 430-767 limits assumed): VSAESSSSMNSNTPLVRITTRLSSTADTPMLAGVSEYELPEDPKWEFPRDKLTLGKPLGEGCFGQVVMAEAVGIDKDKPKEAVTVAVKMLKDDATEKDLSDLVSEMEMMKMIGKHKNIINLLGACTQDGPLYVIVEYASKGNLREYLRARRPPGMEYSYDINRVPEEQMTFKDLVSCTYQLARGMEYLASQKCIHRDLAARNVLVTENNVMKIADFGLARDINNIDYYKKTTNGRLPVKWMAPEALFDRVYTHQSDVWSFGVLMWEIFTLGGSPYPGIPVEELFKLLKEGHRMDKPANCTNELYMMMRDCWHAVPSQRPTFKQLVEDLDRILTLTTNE
Following the 1-hour incubation with compounds, cell lysates were prepared and phospho FGFR2 was measured using the HTRF Phospho-FGFR2 (TYR653/654) Detection Kits (CisBio, cat #64FGFR2Y6PEG). 8 μL of cell lysis buffer (4×) supplied with 1× Phospho and Total protein blocking reagent (CisBio, cat #64FGFR2Y6PEG, CisBio, cat #64KB1AAC) was then added to the wells. Cells were incubated with lysis buffer for 40 minutes at 4° C. under shaking conditions. Plates were centrifuged at 1500 rpm for 3 min and then 16 μL of cell lysate was transferred from the cell-culture plate to a small volume detection plate with the added premixed antibody solutions (4 μL) (CisBio, cat #64FGFR2Y6PEG). Plates were centrifuged at 1000 rpm for 1 min then incubated at 25° C. for 120 min, then overnight at 4° C. Plates were read on the En Vision multimode plate reader via HTRF dual wavelength detection. One hundred percent of control (POC) was determined using DMSO treated samples, and 0 POC was determined using the top concentration of a control compound. A 4-parameter logistic curve was fit to the POC values as a function of compound concentration to determine the IC50 value.

Setting [1] is: compound table after the examples, read-out: Enz FGFR2.

Where two headings read alike, the source gives them in different places.

T3 sequence (P21802 399-821 N549H limits assumed): as the sequence (P21802 399-821 V564I limits assumed) above, with N151H, I166V counted along it
T1 sequence (P21802 399-821 limits assumed): as the sequence (P21802 399-821 V564I limits assumed) above, with I166V counted along it

For the compound `C[C@@H](Oc1cc(-c2cnn(C)c2N)cn2ncc(C#N)c12)c1ccc(F)cn1` [Compound 30, (R)-6-(5-amino-1-methyl-1H-pyrazol-4-yl)-4-(1-(5-fluoropyridin-2-yl)ethoxy)pyrazolo[1,5-a]pyridine-3-carbonitrile], the IC50 at FGFR2 (Table 3, read-out: FGFR2 Enz) worked out at 1 nM; on FGFR2 (setting [1]) it was 1 nM; against FGFR2 V564I, 6 nM; on FGFR2 N549H it was 2 nM; against FGFR2 V564F, 3.7 nM; at FGFR2-WT, 9 nM.
For the compound `C[C@@H](Oc1cc(-c2cnn(CCO)c2N)cn2ncc(C#N)c12)c1ccc(F)cn1` [Compound 31, (R)-6-(5-amino-1-(2-hydroxyethyl)-1H-pyrazol-4-yl)-4-(1-(5-fluoropyridin-2-yl)ethoxy)pyrazolo[1,5-a]pyridine-3-carbonitrile], the IC50 at FGFR2 (Table 3, read-out: FGFR2 Enz) amounted to 1 nM; on FGFR2 (setting [1]) it was 1 nM; on FGFR2 V564I, 5.6 nM; against FGFR2 N549H, 2 nM; on FGFR2 V564F, 5 nM; at FGFR2-WT, 7 nM.
Take `C[C@@H](Oc1cc(-c2cnn([C@H]3CC[C@H](O)CC3)c2N)cn2ncc(C#N)c12)c1ccc(F)cn1` [Compound 32, 6-(5-amino-1-((1r,4R)-4-hydroxycyclohexyl)-1H-pyrazol-4-yl)-4-((R)-1-(5-fluoropyridin-2-yl)ethoxy)pyrazolo[1,5-a]pyridine-3-carbonitrile]: the IC50 at FGFR2 (Table 3, read-out: FGFR2 Enz) was 0.4 nM; at FGFR2 (setting [1]), 0.4 nM; at FGFR2 V564I, 1 nM; on FGFR2 N549H it was 0.3 nM; on FGFR2 V564F, 1 nM; on FGFR2-WT, 2.5 nM.
As for `Cc1c(-c2cc(O[C@H](C)c3ccc(F)cn3)c3c(C#N)cnn3c2)cnn1C1CCS(=O)(=O)CC1` [Compound 33, (R)-6-(1-(1,1-dioxidotetrahydro-2H-thiopyran-4-yl)-5-methyl-1H-pyrazol-4-yl)-4-(1-(5-fluoropyridin-2-yl)ethoxy)pyrazolo[1,5-a]pyridine-3-carbonitrile], the IC50 at FGFR2 (Table 3, read-out: FGFR2 Enz) came out at 1 nM; at FGFR2 (setting [1]), 1 nM; against FGFR2 V564I it was 3 nM; on FGFR2 N549H, 0.7 nM; against FGFR2 V564F, 2 nM; on FGFR2-WT, 6 nM.
In the case of `C[C@@H](Oc1cc(-c2nnn(C)c2N)cn2ncc(C#N)c12)c1ccc(F)cn1` [Compound 34, (R)-6-(5-amino-1-methyl-1H-1,2,3-triazol-4-yl)-4-(1-(5-fluoropyridin-2-yl)ethoxy)pyrazolo[1,5-a]pyridine-3-carbonitrile], the IC50 worked out at 2.6 nM at FGFR2 (Table 3, read-out: FGFR2 Enz); 2.6 nM at FGFR2 (setting [1]); 12 nM on FGFR2 V564I; 3 nM on FGFR2 N549H; 10 nM at FGFR2 V564F; 17 nM on FGFR2-WT.
On to `C[C@@H](Oc1cc(-c2cnn(C)c2N)cn2ncc(C#N)c12)c1ccccn1` [Compound 35, (R)-6-(5-amino-1-methyl-1H-pyrazol-4-yl)-4-(1-(pyridin-2-yl)ethoxy)pyrazolo[1,5-a]pyridine-3-carbonitrile], for which the IC50 amounted to 1 nM on FGFR2 (Table 3, read-out: FGFR2 Enz); 1 nM on FGFR2 (setting [1]); 2.7 nM at FGFR2 V564I; 1 nM on FGFR2 N549H; 2 nM on FGFR2 V564F; 5 nM against FGFR2-WT.
Consider `CC(=O)N[C@H]1CC[C@H](n2ncc(-c3cc(O[C@H](C)c4ccc(F)cn4)c4c(C#N)cnn4c3)c2C)CC1` [Compound 36, N-((1R,4r)-4-(4-(3-cyano-4-((R)-1-(5-fluoropyridin-2-yl)ethoxy)pyrazolo[1,5-a]pyridin-6-yl)-5-methyl-1H-pyrazol-1-yl)cyclohexyl)acetamide], for which the IC50 at FGFR2 (Table 3, read-out: FGFR2 Enz) was 0.4 nM; on FGFR2 (setting [1]), 0.4 nM; at FGFR2 V564I, 2 nM; against FGFR2 N549H it was 0.5 nM; on FGFR2 V564F, 1.5 nM; on FGFR2-WT it was 4 nM.
Take `Cc1c(-c2cc(O[C@H](C)c3ccc(F)cn3)c3c(C#N)cnn3c2)cnn1[C@H]1CCCN(C[C@H](O)CO)C1` [Compound 37, 6-(1-((S)-1-((S)-2,3-dihydroxypropyl)piperidin-3-yl)-5-methyl-1H-pyrazol-4-yl)-4-((R)-1-(5-fluoropyridin-2-yl)ethoxy)pyrazolo[1,5-a]pyridine-3-carbonitrile]: the IC50 on FGFR2 (Table 3, read-out: FGFR2 Enz) stood at 0.5 nM; on FGFR2 (setting [1]), 0.5 nM; on FGFR2 V564I, 1.6 nM; at FGFR2 N549H, 0.3 nM; on FGFR2 V564F, 1 nM; against FGFR2-WT it was 5.6 nM.
For the compound `Cc1c(-c2cc(O[C@H](C)c3ccc(F)cn3)c3c(C#N)cnn3c2)cnn1[C@H]1CCCN(C(CO)CO)C1` [Compound 38, 6-(1-((S)-1-(1,3-dihydroxypropan-2-yl)piperidin-3-yl)-5-methyl-1H-pyrazol-4-yl)-4-((R)-1-(5-fluoropyridin-2-yl)ethoxy)pyrazolo[1,5-a]pyridine-3-carbonitrile], the IC50 on FGFR2 (Table 3, read-out: FGFR2 Enz) turned out to be 0.4 nM; at FGFR2 (setting [1]), 0.4 nM; at FGFR2 V564I it was 1.3 nM; at FGFR2 N549H, 0.3 nM; on FGFR2 V564F it was 1 nM; on FGFR2-WT, 6 nM.
Consider `Cc1c(-c2cc(O[C@H](C)c3ccc(F)cn3)c3c(C#N)cnn3c2)cnn1C1CCN(C[C@H](O)CO)CC1` [Compound 39, 6-(1-(1-((S)-2,3-dihydroxypropyl)piperidin-4-yl)-5-methyl-1H-pyrazol-4-yl)-4-((R)-1-(5-fluoropyridin-2-yl)ethoxy)pyrazolo[1,5-a]pyridine-3-carbonitrile], for which the IC50 on FGFR2 (Table 3, read-out: FGFR2 Enz) stood at 0.5 nM; at FGFR2 (setting [1]) it was 0.5 nM; against FGFR2 V564I, 1 nM; against FGFR2 N549H, 0.4 nM; against FGFR2 V564F, 1 nM; against FGFR2-WT, 5.5 nM.
As for `Cc1c(-c2cc(O[C@H](C)c3ccc(F)cn3)c3c(C#N)cnn3c2)cnn1[C@H]1CCCN(C(=O)C2(O)CCC2)C1` [Compound 40, 4-((R)-1-(5-fluoropyridin-2-yl)ethoxy)-6-(1-((S)-1-(1-hydroxycyclobutane-1-carbonyl)piperidin-3-yl)-5-methyl-1H-pyrazol-4-yl)pyrazolo[1,5-a]pyridine-3-carbonitrile], the IC50 at FGFR2 (Table 3, read-out: FGFR2 Enz) is 1 nM; at FGFR2 (setting [1]), 1 nM; at FGFR2 V564I it was 3 nM; on FGFR2 N549H it was 0.6 nM; against FGFR2 V564F, 2 nM; against FGFR2-WT, 6.7 nM.
In the case of `Cc1c(-c2cc(O[C@H](C)c3ccc(F)cn3)c3c(C#N)cnn3c2)cnn1C1CCN(C(=O)[C@H](C)O)CC1` [Compound 41, 4-((R)-1-(5-fluoropyridin-2-yl)ethoxy)-6-(1-(1-((S)-2-hydroxypropanoyl)piperidin-4-yl)-5-methyl-1H-pyrazol-4-yl)pyrazolo[1,5-a]pyridine-3-carbonitrile], the IC50 stood at 0.5 nM on FGFR2 (Table 3, read-out: FGFR2 Enz); 0.5 nM on FGFR2 (setting [1]); 2 nM on FGFR2 V564I; 0.7 nM at FGFR2 N549H; 2 nM against FGFR2 V564F; 4 nM on FGFR2-WT.
For `Cc1c(-c2cc(O[C@H](C)c3ccc(F)cn3)c3c(C#N)cnn3c2)cnn1C1CCN(C(=O)CO)CC1` [Compound 42, (R)-4-(1-(5-fluoropyridin-2-yl)ethoxy)-6-(1-(1-(2-hydroxyacetyl)piperidin-4-yl)-5-methyl-1H-pyrazol-4-yl)pyrazolo[1,5-a]pyridine-3-carbonitrile], the IC50 worked out at 0.6 nM on FGFR2 (Table 3, read-out: FGFR2 Enz); 0.6 nM on FGFR2 (setting [1]); 2 nM at FGFR2 V564I; 0.65 nM on FGFR2 N549H; 1.7 nM against FGFR2 V564F; 4 nM against FGFR2-WT.
